Article PMC7160333, “Physiological Role of Glutamate Dehydrogenase in Cancer Cells” (Frontiers in Oncology, 2020)
Where two headings read alike, the source gives them in different places.

Legend:
[1] = tested on: cancer cells; assay: Viability by trypan blue assay in 2-D cultures with ammonium; format: cell-based, human; conditions: all culture conditions
[2] = tested on: MCF-7 cells; conditions: for Duplication time: MCF-7, 2-D culture, n = 3; for Maximal cellular densities: reached at day 6
Experimental: (§3) All cancer and non-cancer cell lines used were purchased from ATCC and cultured in DMEM (Sigma-Aldrich) supplemented with 10% fetal bovine serum (Biowest, Nuaillé, France) and 10,000 U penicillin/streptomycin (Sigma-Aldrich) and placed under a humidified atmosphere of 5% CO2/95% air at 37°C.
(§4) Cell growth was followed by counting cellular density every 24 h during 7 to 8 days. […] The duplication time was determined by using the following equation: n=1/[3.32(logNF-logNI)]/(tF-tI) , where NF represents the number of cultured cells at the end of the exponential growth phase; NI represents the number of cells at the beginning of the growth curve; tF is the final time at which cells were harvested, and tI is the initial culture time. The specific growth rate μ was calculated from the slope of a semilogarithmic plot of cell densities in the exponential growth phase vs. time ([88]).

[3] = tested on: MCF-7 cells; design: method as in PMID 28303961; conditions: MCF-7, ammonium 2–5 mM; cited from earlier work
[4] = tested on: HeLa MCTS; assay: HeLa multicellular tumor spheroid (MCTS) growth with ammonium; format: cell-based, human
Experimental: (§1) After 5 days, the culture medium was refreshed, and the MCTSs formed were placed under slow orbital shaking (20–50 rpm) at 37°C and 95% air/5% CO2. […] The spheroid growth was determined at the indicated times by measuring MCTS diameter with a calibrated reticule (1/10 mm) in an inverted phase contrast microscope (Zeiss, Thornwood, NY, USA) ([86]).

[5] = tested on: HCT116 cells; conditions: for Duplication time: HCT116, 2-D culture, n = 3; for Maximal cellular densities: reached at day 7
Experimental: as §3, §4

[6] = tested on: 3T3 fibroblasts; conditions: for Duplication time: 3T3, 2-D culture, n = 3; for Maximal cellular densities: reached at day 5
Experimental: as §3, §4

[7] = target: GDH in HepM and RLM (Rattus norvegicus, UniProt P10860); assay: GDH reverse reaction kinetics, summary statements for HepM and RLM; format: biochemical
Chain of GDH in HepM and RLM (P10860 54-558): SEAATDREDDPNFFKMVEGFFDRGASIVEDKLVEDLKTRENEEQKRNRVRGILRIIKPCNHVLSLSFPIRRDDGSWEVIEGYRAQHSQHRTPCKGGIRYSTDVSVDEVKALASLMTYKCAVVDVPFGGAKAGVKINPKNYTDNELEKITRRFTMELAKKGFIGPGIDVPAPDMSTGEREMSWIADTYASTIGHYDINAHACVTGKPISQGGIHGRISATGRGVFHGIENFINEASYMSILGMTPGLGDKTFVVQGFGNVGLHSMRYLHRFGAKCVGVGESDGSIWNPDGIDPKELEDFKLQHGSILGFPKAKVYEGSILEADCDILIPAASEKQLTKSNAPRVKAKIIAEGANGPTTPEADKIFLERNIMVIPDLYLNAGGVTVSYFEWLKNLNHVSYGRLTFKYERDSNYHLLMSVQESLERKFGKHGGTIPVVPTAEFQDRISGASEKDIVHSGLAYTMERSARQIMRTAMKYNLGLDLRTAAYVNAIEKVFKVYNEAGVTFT
Experimental: The decrease in the absorbance at 340 nm was followed for several minutes (~10 min) to allow for full development of the pronounced enzyme hysteretic behavior, although the initial signal decrease (1–3 min) was taken to calculate the GDH rates. The protein concentration ranges used for each mitochondrial type were well within the linearity range of enzyme activity. To calculate the kinetic parameters, the experimental data were fitted by non-linear regression analysis to the Hill or MWC equation, using the Microcal Origin 5.0 software (OriginLab, Northampton, MA, USA).

[8] = tested on: GDH; conditions: GDH1, reported values; cited from earlier work
[9] = tested on: Colo 205 cells; conditions: for Duplication time: Colo 205, 2-D culture, n = 3; for Maximal cellular densities: reached at day 6
Experimental: as §3, §4

[10] = target: RLM GDH1 (Rattus norvegicus, UniProt P10860); assay: GDH reverse (aminating) reaction activity in rat liver mitochondria (RLM); format: biochemical; conditions: RLM; for K0.5 NH4+: reverse reaction, Hill equation; for Km: read-out: Km NH4+
Chain of RLM GDH1 (P10860 54-558): as above
Experimental: (§2) Tightly coupled mitochondria were isolated from fed-rat liver (RLM) and AS-30D cells (HepM) as described elsewhere ([89], [90]). […] The resulting mitochondrial fractions were resuspended at 30 to 80 mg protein/mL in SHE buffer with 1 mM PMSF, 1 mM EDTA, 5 mM DTT, and 10% glycerol, and stored at −70°C until use for determination of enzyme activity and Western blotting.

[11] = tested on: recombinant human GDH isoforms (GDH1 and GDH2), bovine liver GDH, Ox brain GDH, dogfish liver GDH, rat brain GDH, and bovine brain GDH isoforms; design: method as in PMID 4381532, PMID 7588764, PMID 17924438, PMID 23420347, PMID 7190024; conditions: pH range of 7.4–8.7; cited from earlier work
[12] = tested on: HFF-1 fibroblasts; conditions: for Duplication time: HFF-1, 2-D culture, n = 3; for Maximal cellular densities: reached at day 5
Experimental: as §3, §4

[13] = tested on: A549 cells; conditions: for Duplication time: A549, 2-D culture, n = 3; for Maximal cellular densities: reached at day 6
Experimental: as §3, §4

[14] = tested on: MDA-MB-231 MCTS; assay: MDA-MB-231 multicellular tumor spheroid (MCTS) growth with ammonium; format: cell-based, human
Experimental: as §1

[15] = tested on: DU145 cells; conditions: for Duplication time: DU145, 2-D culture, n = 3; for Maximal cellular densities: reached at day 5
Experimental: as §3, §4

[16] = tested on: PC3 cells; conditions: for Maximal cellular densities: reached at day 5
Experimental: as §3, §4

[17] = tested on: SiHa cells; conditions: for Duplication time: 2-D culture, n = 3; for Maximal cellular densities: reached at day 6
Experimental: as §3, §4

[18] = target: HepM GDH1 (Rattus norvegicus, UniProt P10860); assay: GDH reverse (aminating) reaction activity in hepatoma mitochondria (HepM); format: biochemical; conditions: HepM; for K0.5 NH4+: reverse reaction, Hill equation; for Km: read-out: Km NH4+
Chain of HepM GDH1 (P10860 54-558): as above
Experimental: as §2

[19] = tested on: MDA-MB-231 cells; conditions: for Duplication time: MDA-MB-231, 2-D culture, n = 3
Experimental: as §3, §4

[20] = pH 7.2, MWC equation, GTP inhibition, saturating ADP
[21] = pH 7.5, MWC equation, GTP inhibition, saturating ADP

In the case of Cl.N [NH4Cl, Ammonium chloride], the Viability [1] is reported as “higher than 90%”, the Duplication time ([2]; +5 mM NH4Cl) is reported as 37 ± 2 h and the Duplication time ([2]; +10 mM NH4Cl) is reported as 45 ± 6 h. For the same compound, the Maximal cellular densities ([2]; MCF-7, +5 mM NH4Cl) was 72 ± 6 ×10^3, the Maximal cellular densities ([2]; MCF-7, +10 mM NH4Cl) was 76 ± 5 ×10^3 and the Cell proliferation [3] was “only slightly stimulated”. For the same compound, the “MCTS growth (diameter)” value ([4]; 5 and 10 mM ammonium) was “inhibited”, the “MCTS growth (diameter)” value ([4]; ammonium supplementation) was “did not stimulate growth” and the Duplication time ([5]; +5 mM NH4Cl) was 45 ± 1 h. The Duplication time ([5]; +10 mM NH4Cl) was 39 ± 2 h, the Maximal cellular densities ([5]; HCT116, +5 mM NH4Cl) was 76 ± 11 ×10^3 and the Maximal cellular densities ([5]; HCT116, +10 mM NH4Cl) was 80 ± 13 ×10^3. For the same compound, the Duplication time ([6]; +5 mM NH4Cl) was 46 ± 2 h, the Duplication time ([6]; +10 mM NH4Cl) was 60 ± 1 h and the Maximal cellular densities ([6]; 3T3, +5 mM NH4Cl) was 45 ± 3 ×10^3. The Maximal cellular densities ([6]; 3T3, +10 mM NH4Cl) was 36 ± 2 ×10^3, the IC50 ([6]; read-out: IC50 for decrease of growth, mouse 3T3 fibroblasts, data not shown) was roughly 1000 µM and the “K0.5 for NH4+” value ([7]; Hill equation, HepM and RLM, summary) was “over 20 mM”. The Km ([7]; MWC equation, pH 7.5, summary of Table 3, read-out: Km for ammonium) was roughly 9 mM, the “reported K0.5 for ammonium” value [8] was 15 to 60 mM and the Duplication time ([9]; +5 mM NH4Cl) was 48 ± 2 h. The Duplication time ([9]; +10 mM NH4Cl) was 44 ± 4 h, the Maximal cellular densities ([9]; Colo 205, +5 mM NH4Cl) was 68 ± 6 ×10^3 and the Maximal cellular densities ([9]; Colo 205, +10 mM NH4Cl) was 66 ± 6 ×10^3. For the same compound, the “K0.5 NH4+” value ([10]; pH 7.2, 37°C) was 23.9 ± 3.7 mM, the “nH (Hill coefficient) for NH4+” value ([10]; pH 7.2, Hill equation) was 1.97 ± 0.8 and the Km [10, 20] was 8.5 ± 4.5 mM. The Km ([10]; pH 7.2, MWC equation, with ADP) was 18 ± 11 mM, the “K0.5 NH4+” value ([10]; pH 7.5, 37°C) was 18.2 ± 5.9 mM and the “nH (Hill coefficient) for NH4+” value ([10]; pH 7.5, Hill equation) was 1.4 ± 0.4. For the same compound, the Km [10, 21] was 5.6 ± 3.6 mM, the Km ([10]; pH 7.5, MWC equation, with ADP) was 8.8 ± 4.1 mM and the “K0.5 NH4+” value [11] was 6.5 to 80 mM. For the same compound, the Duplication time ([12]; +5 mM NH4Cl) was 38 ± 12 h, the Duplication time ([12]; +10 mM NH4Cl) was 55 ± 2 h and the Maximal cellular densities ([12]; HFF-1, +5 mM NH4Cl) was 60 ± 10 ×10^3. For the same compound, the Maximal cellular densities ([12]; HFF-1, +10 mM NH4Cl) was 46 ± 3 ×10^3, the IC50 ([12]; read-out: IC50 for decrease of growth, human HFF-1 fibroblasts, data not shown) was roughly 1000 µM and the Duplication time ([13]; +5 mM NH4Cl) was 20 ± 2 h. For the same compound, the Duplication time ([13]; +10 mM NH4Cl) was 17 ± 3 h, the Maximal cellular densities ([13]; A549, +5 mM NH4Cl) was 49 ± 4 ×10^3 and the Maximal cellular densities ([13]; A549, +10 mM NH4Cl) was 56 ± 2 ×10^3. For the same compound, the “MCTS growth (diameter)” value ([14]; ammonium 10 mM) was “clearly toxic”, the “MCTS growth (diameter)” value ([14]; ammonium 0.5–5 mM) was “promoted enhanced growth rates” and the Proliferation rates ([15]; DU145, 0.1 and 0.5 mM NH4Cl, data not shown) was “increased proliferation rates”. The Duplication time ([15]; +5 mM NH4Cl) was 32 ± 2 h, the Duplication time ([15]; +10 mM NH4Cl) was 35 ± 3 h and the Maximal cellular densities ([15]; DU145, +5 mM NH4Cl) was 92 ± 6 ×10^3. For the same compound, the Maximal cellular densities ([15]; DU145, +10 mM NH4Cl) was 85 ± 4 ×10^3, the Duplication time ([16]; PC3, 2-D culture, +10 mM NH4Cl, n = 3) was 26 ± 1 h and the Maximal cellular densities ([16]; PC3, +5 mM NH4Cl) was 136 ± 2 ×10^3. The Maximal cellular densities ([16]; PC3, +10 mM NH4Cl) was 141 ± 1.4 ×10^3, the Duplication time ([17]; +5 mM NH4Cl) was 51 ± 4 h and the Duplication time ([17]; +10 mM NH4Cl) was 55 ± 5 h. For the same compound, the Maximal cellular densities ([17]; +5 mM NH4Cl) was 86 ± 7 ×10^3, the Maximal cellular densities ([17]; +10 mM NH4Cl) was 82 ± 5 ×10^3 and the “K0.5 NH4+” value ([18]; pH 7.2, 37°C) was 25.2 ± 8 mM. For the same compound, the “nH (Hill coefficient) for NH4+” value ([18]; pH 7.2, Hill equation) was 2.12 ± 0.7, the Km [18, 20] was 12 ± 2.6 mM and the Km ([18]; pH 7.2, MWC equation, with ADP) was 11.2 ± 3.5 mM. For the same compound, the “K0.5 NH4+” value ([18]; pH 7.5, 37°C) was 26.8 ± 7.2 mM, the “nH (Hill coefficient) for NH4+” value ([18]; pH 7.5, Hill equation) was 1.5 ± 0.7 and the Km [18, 21] was 10.3 ± 2.6 mM. For the same compound, the Km ([18]; pH 7.5, MWC equation, with ADP) was 9.3 ± 7.2 mM, the Duplication time ([19]; +5 mM NH4Cl) was 26 ± 3 h and the Duplication time ([19]; +10 mM NH4Cl) was 25 ± 1 h. The Maximal cellular densities ([19]; MDA-MB-231, +5 mM NH4Cl, reached at day 4) was 145 ± 13 ×10^3 and the “Rescue of growth after glutamine removal from the culture medium” value ([19]; MDA-MB-231, NH4Cl 1–10 mM, data not shown) was “did not rescue their growth”.
